Molecules are shown by their SMILES.

Series [1] has as its system RAW264.7. Description: Cytotoxicity against mouse RAW264.7 cells at 0.01 to 100 uM after 24 hrs by MTT assay. The series is classed as cell-based. The following applies: raw264.7, 24 h.
Series [2] has as its system RAW264.7. Description: Inhibition of NO production in LPS-stimulated mouse RAW264.7 cells pre-incubated for 2 hrs before LPS stimulation for 24 hrs by Griess assay method. It is filed as functional, cell-based.

For `C=C(C(=O)O)[C@@H]1CC[C@H](C)[C@]2(O)CC(=O)C(C)=C2C1`, the Activity result in series [1] is “Non-toxic”. In series [2], this compound displayed a half-inhibitory concentration (IC50) of 0.18 µM.

Consider `C=C(C(=O)O)[C@@H]1CC[C@](C)(O)[C@@H]2CC(=O)C(C)=C2C1`, for which, in series [1], the Activity result is on record as “Non-toxic”. The IC50 in series [2] is 0.47 µM.

Regarding `C=C(C(=O)O[C@@H]1O[C@H](CO)[C@@H](O)[C@H](O)[C@H]1O)[C@@H]1CC[C@H](C)[C@@H]2CC(=O)C(C)=C2C1`, the Activity entry in series [1] is “Non-toxic”. Besides, the IC50 in series [2] is 4.6 µM.

Take `COc1cc(-c2oc3cc(OC)c(OC)c(O)c3c(=O)c2O)ccc1O`: the Activity result in series [1] is “Non-toxic”. Further, in series [2], half-maximal inhibition (IC50) required 4.75 µM.

As for `COc1ccc(Oc2cc(=O)c3c(O)cc(O[C@@H]4O[C@H](CO)[C@@H](O)[C@H](O)[C@H]4O)cc3o2)cc1`, in series [1], the Activity result is given as “Non-toxic”. It took 21.4 µM to reach half-maximal inhibition in series [2] (IC50).

In the case of `COc1ccc(-c2cc(=O)c3c(O)cc(O[C@@H]4O[C@H](CO)[C@@H](O)[C@H](O)[C@H]4O)cc3o2)cc1OC`, in series [1], the Activity result was “Non-toxic”. Moreover, inhibition in series [2] was half-maximal at 9.51 µM (IC50).

As for `COC(=O)[C@@]1(O)C[C@@H](O)[C@@H](OC(=O)/C=C/c2ccc(O)c(O)c2)[C@H](OC(=O)/C=C/c2ccc(O)c(O)c2)C1`, in series [1], the Activity entry is given as “Non-toxic”. In series [2], the midpoint of inhibition, the IC50, lay at 23.3 µM.

For the compound `O=C(/C=C/c1ccc(O)c(O)c1)O[C@@H]1[C@H](O)C[C@](O)(C(=O)O)C[C@H]1OC(=O)/C=C/c1ccc(O)c(O)c1` (relative stereo), the Activity entry in series [1] is given as “Non-toxic”. The compound further gave an IC50 in series [2] of 20.2 µM.

As for `COc1ccc(-c2cc(=O)c3c(O)cc(O[C@@H]4O[C@H](CO[C@@H]5O[C@@H](C)[C@H](O)[C@@H](O)[C@H]5O)[C@@H](O)[C@H](O)[C@H]4O)cc3o2)cc1` [ACACIIN], in series [1], the Activity entry is recorded as “Non-toxic”. In series [2], this compound showed a concentration for half-maximal inhibition (IC50) of 10 µM.

In series [2], `COc1cc(-c2cc(=O)c3c(O)cc(O)cc3o2)ccc1O` [CHRYSOERIOL] gave a half-maximal inhibitory concentration (IC50) of 0.24 µM.

As for `O=c1cc(-c2ccc(O)c(O)c2)oc2cc(O[C@@H]3O[C@H](CO)[C@@H](O)[C@H](O)[C@H]3O)cc(O)c12` [GALUTEOLIN], the Activity entry in series [1] is given as “Non-toxic”. This compound displayed a half-inhibitory concentration (IC50) in series [2] of 8.3 µM.

Consider `O=c1cc(-c2ccc(O)c(O)c2)oc2cc(O)cc(O)c12` [LUTEOLIN], for which the Activity result in series [1] is given as “Non-toxic”. Further, the IC50 in series [2] is 0.21 µM.

As for `COc1ccc(-c2cc(=O)c3c(O)c(OC)c(O)c(OC)c3o2)cc1` [NEVADENSIN], the Activity entry in series [1] is listed as “Non-toxic”. The compound further yielded an IC50 in series [2] of 5.08 µM.

Regarding `C=C(C(=O)O)[C@@H]1CC[C@H](C)[C@@H]2CC(=O)C(C)=C2C1` [PECHUELOIC ACID], the Activity result in series [1] is on record as “Non-toxic”. In series [2], this compound displayed an IC50 of 3.04 µM.

In turn, `N=C(N)NN` [PIMAGEDINE] registered an IC50 in series [2] of 0.23 µM.

For the compound `COc1ccc(-c2cc(=O)c3c(O)cc(O[C@@H]4O[C@H](CO)[C@@H](O)[C@H](O)[C@H]4O)cc3o2)cc1` [TILIANINE], the Activity entry in series [1] is recorded as “Non-toxic”. For the same compound, the IC50 in series [2] was determined as 8.94 µM.

Broadly, the IC50 is the concentration needed to halve the response being measured. The low end stands for higher potency, the high end for lower potency.

The values are drawn from ChEMBL document CHEMBL3352494, “New guaiane sesquiterpenes from Artemisia rupestris and their inhibitory effects on nitric oxide production” (Bioorg Med Chem Lett, 2014).
